Values quoted from earlier work, collected in paper PMC9321963 (Birth Defects Research, 2022).

Assays:
[1] = tested on: pregnant rats; details: ref Mey, Babiuk, Clugston, Zhang, & Greer, [2003]; cited from earlier work
[2] = tested on: rats; details: ref Food and Drug Administration, Duvelisib Label, [2018]; cited from earlier work
[3] = tested on: rabbits; details: ref Food and Drug Administration, Duvelisib Label, [2018]; cited from earlier work

SMILES | anomalies in offspring after administration to pregnant rats [1] | developmental toxicity [2] | developmental toxicity [3]
O=C(O)c1ccc(-c2ccccc2)cc1 [4‐biphenyl carboxylic acid] | congenital anomalies in the offspring, including CDH defects |  | 
C[C@H](Nc1ncnc2[nH]cnc12)c1cc2cccc(Cl)c2c(=O)n1-c1ccccc1 [Duvelisib] |  | developmental toxicant causing fetal losses and malformations | developmental toxicant causing fetal losses and malformations
O=C(NCCCCCCCCNC(=O)C(Cl)Cl)C(Cl)Cl [bisdiamine, N,N‐octamethylenebis (dichloroacetamide)] | congenital anomalies in the offspring, including CDH defects |  | 
O=[N+]([O-])c1ccc(Oc2ccc(Cl)cc2Cl)cc1 [nitrofen, 2,4‐dichlorophenyl‐p‐nitrophenyl ether] | congenital anomalies in the offspring, including CDH defects |  | 
